Measured values taken from patent publication US20240368122A1, “JAK2 INHIBITORS AND METHODS OF USE THEREOF” (RELAY THERAPEUTICS, INC., priority 2021, published 2024).
Read-outs that look alike come from different tables or passages of the source.

What was measured:
[1] = tested on: TF1 JAK2 V617F STAT3 reporter; assay: Cellular TF1 STAT3 assay (luciferase reporter), JAK2 V617F; type: cell-based; details: read-out: Cell PD-TF1 JAK2 V617F STAT3 (IC50)
Procedure, shortened: (§1)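 TF1 erythroleukemia cells expressing V617F JAK2 with a STAT3 or STAT5 luciferase reporter were seeded at 10,000 cells/well onto compound (10-point, 1:3 dilutions; 10 mM top stock at 1000×) and incubated 18-20 h at 37 °C, 5% CO2. Luminescence was read after ONE-glo addition, 10 min at room temperature.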

[2] = biological target: T1, JAK2 JH2 WT (V536-D812) [W659A, W777A, F794H solubilizing mutations] (Homo sapiens, UniProt O60674, F794H/W659A/W777A); assay: Surface Plasmon Resonance (SPR) binding assay, JAK2 JH2 domain
T1 construct: **JAK2 JH2 WT (V536-D812) [W659A, W777A, F794H solubilizing mutations]; C-thrombin-avi-His6; thrombin cleavage site (C); His6 (C); purchased Biortus
Procedure, shortened: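 Kinetics came from 1:1 fits of single-cycle runs at 20 °C: four 3-fold dilutions from 5 uM for JH1 or 500 nM for JH2, 60 s association, and 300 s or 1200 s dissociation respectively. Protein was freshly captured per compound in the presence of 10 uM stabilizer compound, with running buffer of pH 7.5 HEPES/NaCl/glycerol/DTT plus 2% DMSO.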

[3] = tested on: TF1 JAK2 V617F STAT5 reporter; assay: Cellular TF1 STAT5 assay (luciferase reporter), JAK2 V617F; type: cell-based; details: read-out: Cell PD TF1 V617F STAT5 (IC50)
Procedure, shortened: as §1

[4] = Homo sapiens, TF-1, TF1 cells, JAK2 V617F

T1 sequence (O60674 536-812 W659A/W777A/F794H): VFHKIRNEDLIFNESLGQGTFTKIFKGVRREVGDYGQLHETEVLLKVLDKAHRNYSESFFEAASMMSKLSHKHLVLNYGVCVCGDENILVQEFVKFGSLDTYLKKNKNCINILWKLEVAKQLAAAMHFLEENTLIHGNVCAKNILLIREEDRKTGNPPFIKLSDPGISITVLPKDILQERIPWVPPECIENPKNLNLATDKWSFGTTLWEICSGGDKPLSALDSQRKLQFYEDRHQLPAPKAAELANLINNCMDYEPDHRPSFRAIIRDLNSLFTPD

SMILES	IC50 [1, 4] [nM]	Kd [2] [nM]	IC50 [3, 4] [nM]	IC50 ([1]; TF1 JAK2 V617F) [nM]	Kd ([2]; SPR, JAK2 JH2 domain) [nM]	IC50 ([3]; TF1 JAK2 V617F) [nM]
CNC(=O)c1nnc(NC(=O)C2CC2)cc1Nc1cccc(-c2cn([C@@H]3CN(Cc4cccc(C)n4)[C@H]3C(OC)OC)nn2)c1OC (racemic) [Compound 247]	500 to 5000	0.01 to 10	500 to 5000	–	–	–
CNC(=O)c1nnc(NC(=O)C2CC2)cc1Nc1cccc(-c2cnn(C3CN(C(C#N)c4ccccn4)C3)c2)c1OC (racemic) [Compound 315]	500 to 5000	0.01 to 10	5000 to 100000	–	–	–
CNC(=O)c1nnc(NC(=O)C2CC2)cc1Nc1cccc(-c2ccc(C3CN(Cc4cccnc4C(F)F)C3)nc2)c1OC [Compound 288]	5000 to 100000	50 to 500	5000 to 100000	–	–	–
CNC(=O)c1nnc(NC(=O)C2CC2)cc1Nc1cccc(-c2cnn(C3CN(Cc4cccnc4Cl)C3)c2)c1OC [Compound 169]	–	–	–	50 to 500	0.01 to 10	50 to 500
CNC(=O)c1nnc(NC(=O)C2CC2)cc1Nc1ccc(C)c(-c2cnc(C(=O)N(C)Cc3cc(C(F)F)ccn3)c(F)c2)c1OC [Compound 289]	50 to 500	0.01 to 10	50 to 500	–	–	–
CNC(=O)c1nnc(NC(=O)C2CC2)cc1Nc1cccc(-c2ccc(C(=O)N(C)Cc3cc(C#N)ccn3)c(C(F)(F)F)c2)c1OC [Compound 170]	–	–	–	500 to 5000	0.01 to 10	500 to 5000
CNC(=O)c1nnc(NC(=O)C2CC2)cc1Nc1cccc(-c2ccc(C(=O)N(C)Cc3cn(C)nc3C(F)F)nc2)c1OC [Compound 222]	50 to 500	0.01 to 10	50 to 500	–	–	–
CNC(=O)c1nnc(NC(=O)C2CC2)cc1Nc1nccc(-c2cnn(C3CN(Cc4ccccn4)C3)c2)c1OC [Compound 218]	50 to 500	0.01 to 10	500 to 5000	–	–	–
CNC(=O)c1nnc(NC(=O)C2CC2)cc1Nc1cccc(-c2cnn(C3CN(Cc4cccn(C)c4=O)C3)c2)c1OC [Compound 267]	50 to 500	0.01 to 10	50 to 500	–	–	–
CNC(=O)c1nnc(NC(=O)C2CC2)cc1Nc1cccc(-c2cnn(C3CN(Cc4ncccc4F)C3)c2)c1OC [Compound 69]	–	–	–	500 to 5000	0.01 to 10	500 to 5000
CNC(=O)c1nnc(NC(=O)C2CC2)cc1Nc1cccc(-c2cnc(C(=O)N(C)Cc3ccccn3)c(F)c2)c1OC [Compound 27]	–	–	–	50 to 500	0.01 to 10	50 to 500
[2H]C([2H])([2H])NC(=O)c1nnc(NC(=O)C2CC2)cc1Nc1cccc(-c2ccc(C(=O)N(C)Cc3ccn(C)n3)nc2)c1OC [Compound 79]	–	–	–	50 to 500	0.01 to 10	500 to 5000
CNC(=O)c1nnc(NC(=O)C2CC2)cc1Nc1cccc(-c2ccc(C(=O)N3CCc4cccnc4C3)nc2)c1OC [Compound 108]	–	–	–	5000 to 100000	10 to 50	5000 to 100000
CCOc1cccc(CN2CC(c3ccc(-c4cccc(Nc5cc(NC(=O)C6CC6)nnc5C(=O)NC)c4OC)cn3)C2)n1 [Compound 389]	5000 to 100000	50 to 500	500 to 5000	–	–	–
CNC(=O)c1nnc(NC(=O)C2CC2)cc1Nc1cccc(-c2cnn(C3CN(Cc4csc(C)n4)C3)c2)c1OC [Compound 126]	–	–	–	50 to 500	0.01 to 10	50 to 500
CNC(=O)c1nnc(NC(=O)C2CC2)cc1Nc1cccc(-c2cnn(C3CN(Cc4cccc5nccn45)C3)c2)c1OC [Compound 374]	50 to 500	0.01 to 10	50 to 500	–	–	–
CNC(=O)c1nnc(NC(=O)C2CC2)cc1Nc1cccc(-c2cnn(C3CN(Cc4ncccc4C(F)(F)F)C3)c2)c1OC [Compound 302]	500 to 5000	0.01 to 10	500 to 5000	–	–	–
CNC(=O)c1nnc(NC(=O)C2CC2)cc1Nc1cccc(-c2ccc(C(=O)N(C)CC(F)F)nc2)c1OC [Compound 114]	–	–	–	5000 to 100000	10 to 50	5000 to 100000
CNC(=O)c1nnc(NC(=O)C2CC2)cc1Nc1cccc(-c2ccc(C(=O)N(C)[C@H](C)c3cc(C#N)ccn3)nc2)c1OC (single isomer, unassigned) [Compound 181]	–	–	–	500 to 5000	0.01 to 10	500 to 5000
CNC(=O)c1nnc(NC(=O)C2CC2)cc1Nc1cccc(-c2ccc(C(=O)N(C)Cc3cccc(OC(F)F)n3)nc2)c1OC [Compound 179]	–	–	–	500 to 5000	0.01 to 10	500 to 5000
COc1c(Nc2cc(NC(=O)C3CC3)nnc2-c2ncc[nH]2)ccc(C)c1-c1ccc(C(=O)N(C)Cc2cn(C)nc2C)nc1 [Compound 376]	500 to 5000	0.01 to 10	500 to 5000	–	–	–

SMILES	IC50 [1, 4] [nM]	Kd [2] [nM]	IC50 [3, 4] [nM]	IC50 ([1]; TF1 JAK2 V617F) [nM]	Kd ([2]; SPR, JAK2 JH2 domain) [nM]	IC50 ([3]; TF1 JAK2 V617F) [nM]
CNC(=O)c1nnc(NC(=O)C2CC2)cc1Nc1cccc(-c2cnn(C3CN(Cc4cccc(C5CC5)n4)C3)c2)c1OC [Compound 276]	50 to 500	0.01 to 10	50 to 500	–	–	–
CNC(=O)c1nnc(NC(=O)C2CC2)cc1Nc1cccc(-c2cnn(C3CN(Cc4nccc(OC)n4)C3)c2)c1OC [Compound 78]	–	–	–	500 to 5000	0.01 to 10	500 to 5000
CNC(=O)c1nnc(NC(=O)C2CC2)cc1Nc1ccc(C)c(-c2cnc(C(=O)N(C)Cc3cn(C)nc3C)c(F)c2)c1OC [Compound 230]	50 to 500	0.01 to 10	50 to 500	–	–	–
CNC(=O)c1nnc(NC(=O)C2CC2)cc1Nc1cccc(-c2ccc(C3CN(Cc4ccc5c(n4)CCC5)C3)nc2)c1OC [Compound 385]	5000 to 100000	50 to 500	500 to 5000	–	–	–
[2H]C([2H])([2H])NC(=O)c1nnc(NC(=O)C2CC2)cc1Nc1cccc(-c2cnc(C(=O)N(Cc3ccn(C)n3)C([2H])([2H])[2H])nc2)c1OC [Compound 63]	–	–	–	500 to 5000	0.01 to 10	500 to 5000
CNC(=O)c1nnc(NC(=O)C2CC2)cc1Nc1cccc(-c2cnn(C3CN([C@H](C)c4ccccn4)C3)c2)c1OC (single isomer, unassigned) [Compound 163]	–	–	–	500 to 5000	0.01 to 10	5000 to 100000
CNC(=O)c1nnc(NC(=O)C2CC2)cc1Nc1cccc(-c2cnn([C@H]3C[C@@H]([C@@H](O)c4ccccn4)C3)c2)c1OC (single isomer, unassigned) [Compound 398]	500 to 5000	–	500 to 5000	–	0.01 to 10	–
CNC(=O)c1nnc(NC(=O)C2CC2)cc1Nc1cccc(-c2cnn(C3CN(Cc4cccc(C#CCO)n4)C3)c2)c1OC [Compound 255]	50 to 500	0.01 to 10	50 to 500	–	–	–
CNC(=O)c1nnc(NC(=O)C2CC2)cc1Nc1cccc(-c2cnn(C3CN(Cc4cccc(C#CC5CC5)n4)C3)c2)c1OC [Compound 241]	50 to 500	0.01 to 10	50 to 500	–	–	–
CNC(=O)c1nnc(NC(=O)C2CC2)cc1Nc1cccc(-c2cnn([C@@H]3CCN(Cc4cccc(C#N)n4)C3)c2)c1OC (single isomer, unassigned) [Compound 318]	500 to 5000	0.01 to 10	500 to 5000	–	–	–
CNC(=O)c1nnc(NC(=O)C2CC2)cc1Nc1ccc(C)c(-c2ccc(C(=O)N(C)Cc3cc(C#N)ccn3)cc2)c1OC [Compound 103]	–	–	–	50 to 500	0.01 to 10	500 to 5000
CNC(=O)c1nnc(NC(=O)C2CC2)cc1Nc1cccc(-c2ccc(NC(=O)Cc3cccn(C)c3=O)cc2)c1OC [Compound 2]	–	–	–	5000 to 100000	0.01 to 10	5000 to 100000
CNC(=O)c1nnc(NC(=O)C2CC2)cc1Nc1cccc(-c2ccc(C3CN(Cc4cnn(C)c4)C3)nc2)c1OC [Compound 264]	5000 to 100000	50 to 500	5000 to 100000	–	–	–
CNC(=O)c1nnc(NC(=O)C2CC2)cc1Nc1cccc(-c2ccc(C(=O)N(C)Cc3c(C)nn(C)c3C)nc2)c1OC [Compound 168]	–	–	–	50 to 500	0.01 to 10	50 to 500
CNC(=O)c1nnc(NC(=O)C2CC2)cc1Nc1cccc(-c2cnn(C3CN(Cc4cc(OC)ccn4)C3)c2)c1OC [Compound 88]	–	–	–	500 to 5000	0.01 to 10	500 to 5000
[2H]C([2H])([2H])NC(=O)c1nnc(NC(=O)C2CC2)cc1Nc1cccc(-c2ccc(C(=O)N(Cc3cc(C#N)ccn3)C([2H])([2H])[2H])nc2)c1OC [Compound 74]	–	–	–	50 to 500	0.01 to 10	50 to 500
CNC(=O)c1nnc(NC(=O)C2CC2)cc1Nc1cccc(-c2cnn(C3CN(Cc4cc(C)ccn4)C3)c2)c1OC [Compound 111]	–	–	–	50 to 500	0.01 to 10	50 to 500
CNC(=O)c1nnc(NC(=O)C2CC2)cc1Nc1cccc(-c2cnn(C3CN(Cc4cc(C(F)F)cc(C#N)n4)C3)c2)c1OC [Compound 344]	50 to 500	0.01 to 10	50 to 500	–	–	–
CNC(=O)c1nnc(NC(=O)C2CC2)cc1Nc1cccc(-c2cnn(C3CN([C@@H](C)c4ccccn4)C3)c2)c1OC (single isomer, unassigned) [Compound 162]	–	–	–	50 to 500	0.01 to 10	500 to 5000
CNC(=O)c1nnc(NC(=O)C2CC2)cc1Nc1cccc(-c2ccc(C(=O)N(C)Cc3cnsc3)nc2)c1OC [Compound 195]	–	–	–	500 to 5000	0.01 to 10	500 to 5000
